Measurements as given in patent US20230017045A1, “PYRIDINE AND PYRIMIDINE CARBOXYLATE HERBICIDES AND METHODS OF USE THEREOF” (Dow AgroSciences LLC, priority 2017, published 2023).

system: not given; assay: not given; details: not given

| melting point | SMILES |
| --- | --- |
| 127 to 128 °C | COC(=O)c1nc(-c2ccc(C(F)(F)F)cc2Cl)cc(F)c1Cl [F109, methyl 3-chloro-6-(2-chloro-4-(trifluoromethyl)phenyl)-4-fluoropicolinate] |
| 65 to 67 °C | COC(=O)c1nc(-c2ccc(C(F)(F)F)cc2Cl)c(F)c(OC)c1Cl [F42, methyl 3-chloro-6-(2-chloro-4-(trifluoromethyl)phenyl)-5-fluoro-4-methoxypicolinate] |

system: test plant species; assay: Post-emergent herbicidal activity test (greenhouse, foliar spray, visual growth reduction); type: in vivo; details: post-emergence, 336 h, ALOMY: blackgrass (Alopecurus myosuroides), 140 g ai/ha, 14 days after application, read-out: Visual Growth Reduction (%) 14 Days After Application, ALOMY
Outline: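 Visual scoring 14 d after treatment (0 = no injury, 100 = complete control) against nontreated and solvent-blank plants gave percent growth reduction. Foliar application used a track sprayer delivering 187 L/ha to seedlings at first or second true leaf stage, grown at 23–29 °C day, ~15 h photoperiod.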

| SMILES | pest or weed control at 140 g/ha |
| --- | --- |
| COC(=O)c1nc(-c2ccc(C(F)(F)F)cc2Cl)cc(F)c1Cl [F109, methyl 3-chloro-6-(2-chloro-4-(trifluoromethyl)phenyl)-4-fluoropicolinate] | 0 to 29% |
| COC(=O)c1nc(-c2ccc(C(F)(F)F)cc2Cl)c(F)c(OC)c1Cl [F42, methyl 3-chloro-6-(2-chloro-4-(trifluoromethyl)phenyl)-5-fluoro-4-methoxypicolinate] | 0 to 29% |

same assay, conditions: post-emergence, 336 h, AMARE: redroot pigweed (Amaranthus retroflexus), 140 g ai/ha, 14 days after application, read-out: Visual Growth Reduction (%) 14 Days After Application, AMARE

| SMILES | pest or weed control at 140 g/ha |
| --- | --- |
| COC(=O)c1nc(-c2ccc(C(F)(F)F)cc2Cl)cc(F)c1Cl [F109, methyl 3-chloro-6-(2-chloro-4-(trifluoromethyl)phenyl)-4-fluoropicolinate] | 0 to 29% |
| COC(=O)c1nc(-c2ccc(C(F)(F)F)cc2Cl)c(F)c(OC)c1Cl [F42, methyl 3-chloro-6-(2-chloro-4-(trifluoromethyl)phenyl)-5-fluoro-4-methoxypicolinate] | 30 to 44% |

same assay, conditions: post-emergence, 336 h, AVEFA: wild oat (Avena fatua), 140 g ai/ha, 14 days after application, read-out: Visual Growth Reduction (%) 14 Days After Application, AVEFA

| SMILES | pest or weed control at 140 g/ha |
| --- | --- |
| COC(=O)c1nc(-c2ccc(C(F)(F)F)cc2Cl)cc(F)c1Cl [F109, methyl 3-chloro-6-(2-chloro-4-(trifluoromethyl)phenyl)-4-fluoropicolinate] | 0 to 29% |
| COC(=O)c1nc(-c2ccc(C(F)(F)F)cc2Cl)c(F)c(OC)c1Cl [F42, methyl 3-chloro-6-(2-chloro-4-(trifluoromethyl)phenyl)-5-fluoro-4-methoxypicolinate] | 0 to 29% |

same assay, conditions: post-emergence, 336 h, CHEAL: lambsquarters (Chenopodium album), 140 g ai/ha, 14 days after application, read-out: Visual Growth Reduction (%) 14 Days After Application, CHEAL

| SMILES | pest or weed control at 140 g/ha |
| --- | --- |
| COC(=O)c1nc(-c2ccc(C(F)(F)F)cc2Cl)cc(F)c1Cl [F109, methyl 3-chloro-6-(2-chloro-4-(trifluoromethyl)phenyl)-4-fluoropicolinate] | 0 to 29% |
| COC(=O)c1nc(-c2ccc(C(F)(F)F)cc2Cl)c(F)c(OC)c1Cl [F42, methyl 3-chloro-6-(2-chloro-4-(trifluoromethyl)phenyl)-5-fluoro-4-methoxypicolinate] | 85 to 94% |

same assay, conditions: post-emergence, 336 h, CIRAR: canada thistle (Cirsium arvense), 140 g ai/ha, 14 days after application, read-out: Visual Growth Reduction (%) 14 Days After Application, CIRAR

| SMILES | pest or weed control at 140 g/ha |
| --- | --- |
| COC(=O)c1nc(-c2ccc(C(F)(F)F)cc2Cl)cc(F)c1Cl [F109, methyl 3-chloro-6-(2-chloro-4-(trifluoromethyl)phenyl)-4-fluoropicolinate] | 0 to 29% |
| COC(=O)c1nc(-c2ccc(C(F)(F)F)cc2Cl)c(F)c(OC)c1Cl [F42, methyl 3-chloro-6-(2-chloro-4-(trifluoromethyl)phenyl)-5-fluoro-4-methoxypicolinate] | 60 to 74% |

same assay, conditions: post-emergence, 336 h, CYPES: yellow nutsedge (Cyperus esculentus), 140 g ai/ha, 14 days after application, read-out: Visual Growth Reduction (%) 14 Days After Application, CYPES

| SMILES | pest or weed control at 140 g/ha |
| --- | --- |
| COC(=O)c1nc(-c2ccc(C(F)(F)F)cc2Cl)cc(F)c1Cl [F109, methyl 3-chloro-6-(2-chloro-4-(trifluoromethyl)phenyl)-4-fluoropicolinate] | 0 to 29% |
| COC(=O)c1nc(-c2ccc(C(F)(F)F)cc2Cl)c(F)c(OC)c1Cl [F42, methyl 3-chloro-6-(2-chloro-4-(trifluoromethyl)phenyl)-5-fluoro-4-methoxypicolinate] | 0 to 29% |

same assay, conditions: post-emergence, 336 h, DIGSA: crabgrass (Digitaria sanguinalis), 140 g ai/ha, 14 days after application, read-out: Visual Growth Reduction (%) 14 Days After Application, DIGSA

| SMILES | pest or weed control at 140 g/ha |
| --- | --- |
| COC(=O)c1nc(-c2ccc(C(F)(F)F)cc2Cl)cc(F)c1Cl [F109, methyl 3-chloro-6-(2-chloro-4-(trifluoromethyl)phenyl)-4-fluoropicolinate] | 0 to 29% |
| COC(=O)c1nc(-c2ccc(C(F)(F)F)cc2Cl)c(F)c(OC)c1Cl [F42, methyl 3-chloro-6-(2-chloro-4-(trifluoromethyl)phenyl)-5-fluoro-4-methoxypicolinate] | 0 to 29% |

same assay, conditions: post-emergence, 336 h, ECHCG: barnyardgrass (Echinochloa crus-galli), 140 g ai/ha, 14 days after application, read-out: Visual Growth Reduction (%) 14 Days After Application, ECHCG

| SMILES | pest or weed control at 140 g/ha |
| --- | --- |
| COC(=O)c1nc(-c2ccc(C(F)(F)F)cc2Cl)cc(F)c1Cl [F109, methyl 3-chloro-6-(2-chloro-4-(trifluoromethyl)phenyl)-4-fluoropicolinate] | 0 to 29% |
| COC(=O)c1nc(-c2ccc(C(F)(F)F)cc2Cl)c(F)c(OC)c1Cl [F42, methyl 3-chloro-6-(2-chloro-4-(trifluoromethyl)phenyl)-5-fluoro-4-methoxypicolinate] | 0 to 29% |

same assay, conditions: post-emergence, 336 h, IPOHE: ivy-leaf morning glory (Ipomoea hederacea), 140 g ai/ha, 14 days after application, read-out: Visual Growth Reduction (%) 14 Days After Application, IPOHE

| SMILES | pest or weed control at 140 g/ha |
| --- | --- |
| COC(=O)c1nc(-c2ccc(C(F)(F)F)cc2Cl)cc(F)c1Cl [F109, methyl 3-chloro-6-(2-chloro-4-(trifluoromethyl)phenyl)-4-fluoropicolinate] | 0 to 29% |
| COC(=O)c1nc(-c2ccc(C(F)(F)F)cc2Cl)c(F)c(OC)c1Cl [F42, methyl 3-chloro-6-(2-chloro-4-(trifluoromethyl)phenyl)-5-fluoro-4-methoxypicolinate] | 85 to 94% |

same assay, conditions: post-emergence, 336 h, KCHSC: kochia (Bassia scoparia), 140 g ai/ha, 14 days after application, read-out: Visual Growth Reduction (%) 14 Days After Application, KCHSC

| SMILES | pest or weed control at 140 g/ha |
| --- | --- |
| COC(=O)c1nc(-c2ccc(C(F)(F)F)cc2Cl)cc(F)c1Cl [F109, methyl 3-chloro-6-(2-chloro-4-(trifluoromethyl)phenyl)-4-fluoropicolinate] | 0 to 29% |
| COC(=O)c1nc(-c2ccc(C(F)(F)F)cc2Cl)c(F)c(OC)c1Cl [F42, methyl 3-chloro-6-(2-chloro-4-(trifluoromethyl)phenyl)-5-fluoro-4-methoxypicolinate] | 45 to 59% |

same assay, conditions: post-emergence, 336 h, ORYSA: rice (Oryza sativa), 140 g ai/ha, 14 days after application, read-out: Visual Growth Reduction (%) 14 Days After Application, ORYSA

| SMILES | pest or weed control at 140 g/ha |
| --- | --- |
| COC(=O)c1nc(-c2ccc(C(F)(F)F)cc2Cl)cc(F)c1Cl [F109, methyl 3-chloro-6-(2-chloro-4-(trifluoromethyl)phenyl)-4-fluoropicolinate] | 0 to 29% |
| COC(=O)c1nc(-c2ccc(C(F)(F)F)cc2Cl)c(F)c(OC)c1Cl [F42, methyl 3-chloro-6-(2-chloro-4-(trifluoromethyl)phenyl)-5-fluoro-4-methoxypicolinate] | 0 to 29% |

same assay, conditions: post-emergence, 336 h, SETFA: giant foxtail (Setaria faberi), 140 g ai/ha, 14 days after application, read-out: Visual Growth Reduction (%) 14 Days After Application, SETFA

| SMILES | pest or weed control at 140 g/ha |
| --- | --- |
| COC(=O)c1nc(-c2ccc(C(F)(F)F)cc2Cl)cc(F)c1Cl [F109, methyl 3-chloro-6-(2-chloro-4-(trifluoromethyl)phenyl)-4-fluoropicolinate] | 0 to 29% |
| COC(=O)c1nc(-c2ccc(C(F)(F)F)cc2Cl)c(F)c(OC)c1Cl [F42, methyl 3-chloro-6-(2-chloro-4-(trifluoromethyl)phenyl)-5-fluoro-4-methoxypicolinate] | 0 to 29% |

same assay, conditions: post-emergence, 336 h, SORVU: grain sorghum (Sorghum vulgare), 140 g ai/ha, 14 days after application, read-out: Visual Growth Reduction (%) 14 Days After Application, SORVU

| SMILES | pest or weed control at 140 g/ha |
| --- | --- |
| COC(=O)c1nc(-c2ccc(C(F)(F)F)cc2Cl)cc(F)c1Cl [F109, methyl 3-chloro-6-(2-chloro-4-(trifluoromethyl)phenyl)-4-fluoropicolinate] | 0 to 29% |
| COC(=O)c1nc(-c2ccc(C(F)(F)F)cc2Cl)c(F)c(OC)c1Cl [F42, methyl 3-chloro-6-(2-chloro-4-(trifluoromethyl)phenyl)-5-fluoro-4-methoxypicolinate] | 75 to 84% |

same assay, conditions: post-emergence, 336 h, STEME: common chickweed (Stellaria media), 140 g ai/ha, 14 days after application, read-out: Visual Growth Reduction (%) 14 Days After Application, STEME

| SMILES | pest or weed control at 140 g/ha |
| --- | --- |
| COC(=O)c1nc(-c2ccc(C(F)(F)F)cc2Cl)c(F)c(OC)c1Cl [F42, methyl 3-chloro-6-(2-chloro-4-(trifluoromethyl)phenyl)-5-fluoro-4-methoxypicolinate] | 0 to 29% |

same assay, conditions: post-emergence, 336 h, TRZAS: wheat, spring (Triticum aestivum), 140 g ai/ha, 14 days after application, read-out: Visual Growth Reduction (%) 14 Days After Application, TRZAS

| SMILES | pest or weed control at 140 g/ha |
| --- | --- |
| COC(=O)c1nc(-c2ccc(C(F)(F)F)cc2Cl)cc(F)c1Cl [F109, methyl 3-chloro-6-(2-chloro-4-(trifluoromethyl)phenyl)-4-fluoropicolinate] | 0 to 29% |
| COC(=O)c1nc(-c2ccc(C(F)(F)F)cc2Cl)c(F)c(OC)c1Cl [F42, methyl 3-chloro-6-(2-chloro-4-(trifluoromethyl)phenyl)-5-fluoro-4-methoxypicolinate] | 0 to 29% |
